According to patent publication US20230348376A1 (TEIJIN PHARMA LIMITED, priority 2020, published 2023):
pEC50: −log10 of the molar value.

How the values were obtained:
human VDR = molecular target: T1, human VDR (Homo sapiens, UniProt P11473); test: Evaluation of VDR transcription activity in human osteoblasts (HOS cells), luciferase reporter; details: Activity (EC50, VDR transcription activity), HOS cells transfected with human VDR, human RXRα and DR3 luciferase reporter; 21 hours
T1 sequence (P11473 1-427): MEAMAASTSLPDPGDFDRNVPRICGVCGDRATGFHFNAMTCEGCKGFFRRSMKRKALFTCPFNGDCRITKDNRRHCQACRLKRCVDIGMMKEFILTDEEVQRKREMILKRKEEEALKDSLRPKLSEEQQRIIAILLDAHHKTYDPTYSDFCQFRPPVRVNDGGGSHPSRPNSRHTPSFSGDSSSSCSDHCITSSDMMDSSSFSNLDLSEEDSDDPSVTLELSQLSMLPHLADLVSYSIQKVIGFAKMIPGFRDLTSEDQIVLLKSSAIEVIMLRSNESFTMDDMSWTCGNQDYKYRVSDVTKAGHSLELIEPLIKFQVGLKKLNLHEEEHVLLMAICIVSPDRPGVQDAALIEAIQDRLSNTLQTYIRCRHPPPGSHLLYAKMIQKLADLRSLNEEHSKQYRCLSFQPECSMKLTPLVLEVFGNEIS
T1 sequence (P19793 1-462 partner): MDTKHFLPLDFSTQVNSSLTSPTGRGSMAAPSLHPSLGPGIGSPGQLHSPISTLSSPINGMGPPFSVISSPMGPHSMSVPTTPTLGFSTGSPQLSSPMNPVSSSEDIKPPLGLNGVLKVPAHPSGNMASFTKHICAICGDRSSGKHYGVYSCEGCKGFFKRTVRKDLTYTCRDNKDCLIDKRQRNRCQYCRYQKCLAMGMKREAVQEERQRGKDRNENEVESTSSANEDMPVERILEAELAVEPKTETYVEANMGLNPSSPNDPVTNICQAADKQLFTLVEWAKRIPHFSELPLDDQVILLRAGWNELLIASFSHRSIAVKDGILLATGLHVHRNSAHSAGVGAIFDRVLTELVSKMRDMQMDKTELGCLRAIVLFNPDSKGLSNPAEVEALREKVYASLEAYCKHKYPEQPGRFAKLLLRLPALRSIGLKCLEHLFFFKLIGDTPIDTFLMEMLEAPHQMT

[1] = tested on: rat oligodendrocyte progenitor cells; test: Promotive activity of rat oligodendrocyte progenitor cell differentiation-1 (MBP gene expression, mRNA); assay type: cell-based; details: Rattus norvegicus, Oligodendrocyte progenitor cell, 96 h, read-out: promotive activity at T3 base (MBP gene expression; DMSO 0%, T3 100%), 4 days, MBP/β actin mRNA
Experimental: Regarding vitamin D derivatives, which was confirmed to act on the vitamin D receptor (VDR) in Example 352, the promotive activity of oligodendrocyte progenitor cell (OPC) differentiation was evaluated by MBP gene expression (mRNA).
A forebrain obtained from SD rat (Charles River Japan, 1 day old) was crushed with 70 μm Cell Strainer (Falcon #352350), and a cell suspension was prepared by collecting the cells in oligodendrocyte progenitor cell separation medium (20% FBS/2 mM Glutamax (Gibco #35050-061)/i mM sodium pyruvate (Gibco #11360-070)/1% penicillin-streptomycin (Invitrogen #15140-122)/DMEM (Gibco #11960-044)). The cell suspension was seeded in a poly-D-lysine coated T75 flask (Thermo Fisher Scientific #132704) and cultured for about 2 weeks. After culturing, the flask was shaken using a rotary shaker ([…] #WB-101SRC) for about 1 hour (37° C., 100 rpm), and the supernatant was discarded to remove microglia. Subsequently, oligodendrocyte progenitor cell separation medium was added to the flask, and the mixture was similarly shaken for about 22 hours (37° C., 200 rpm), and the supernatant was collected to prepare oligodendrocyte progenitor cells.
The oligodendrocyte progenitor cell prepared was suspended in a differentiation medium (2% B27 (Thermo Fisher Scientific, Inc. #17504-044)/1% penicillin-streptomycin (Invitrogen Corporation #15140-122)/10 ng/mL CNTF (PeproTech Inc. #AF-450-13)/DMEM (Gibco #11960-044)), and seeded on a 96-well plate coated with poly-L-ornithine (FUJIFILM Wako Pure Chemical Corporation #163-27421) under the condition of 0.65×10^4 cells/well, and on a 384-well plate under the condition of 2×10^3 cells/well using an automatic dispensing system (LABCYTE #Echo555). […] After culturing, the cells seeded on the 96-well plate were subjected to immunostaining against MBP using following methods: fixation (4% paraformaldehyde solution, 30 minutes, room temperature), PBS washing, membrane permeation treatment (0.1% Trion X-100 (SIGMA #X100-100ML)/PBS, 3 minutes, room temperature), blocking (3% BSA (SIGMA #A9647-10G)/PBS, 1 hour, room temperature), primary antibody reaction (MBP antibody (abcam plc #ab40390), 2.5 μg/mL, 4° C., 24 hours), PBS washing, secondary antibody reaction (Alexa488 anti-rabbit IgG (Thermo Fisher Scientific, Inc. #A-11034), 5 μg/mL, room temperature, 1 hour), PBS washing, and nuclear staining (Hoechst33342 (DOJINDO #NU043), 10 μg/mL, room temperature, 5 minutes). Subsequently, images of each well were acquired using a fluorescence microscope (KEYENCE CORPORATION #BZ-X800), the number of MBP-positive cells and Hoechst 33342-positive cells were measured using an image analysis application (KEYENCE CORPORATION #BZ-X800 Analyzer), and then the ratio (the number of MBP-positive cells/the number of Hoechst33342-positive cells) was calculated. The cells seeded on the 384-well plate were subjected to real-time PCR using Cells-to-CT 1-Step TaqMan Kit (Thermo Fisher Scientific, Inc. #A25602) and QuantStudio 12K Flex Real-Time PCR System (Thermo Fisher Scientific, Inc. #4472380). The experiment was performed in accordance with the protocol attached to the kit. MBP (Thermo Fisher Scientific, Inc. #Assay ID Rn00690616_ml) and β actin (Thermo Fisher Scientific, Inc. #Assay ID Rn00667869_ml) were used as primers, and the expression levels of each were measured and the ratio (MBP/β actin) was calculated.

pEC50 (human VDR) | Compound | activation at 1 µM [1]
7.00 to 8.00 | COC1(C)CCCN(C[C@@H](C)[C@H]2CC[C@H]3/C(=C/C=C4C[C@@H](O)C[C@H](O)C4)CCC[C@]23C)C1 (single isomer, unassigned) [Compound C045a] | ≥ 20%
8.00 to 9.00 | C=C1[C@H](O)CC(=C/C=C2\CCC[C@]3(C)[C@@H]([C@H](C)CCN4CCOC[C@H]4C)CC[C@@H]23)C[C@H]1O [Compound D031, (1R,3R)-5-(2-((1R,3aS,7aR,E)-7a-methyl-1-((R)-4-((R)-3-methylmorpholino)butan-2-yl)octahydro-4H-inden-4-ylidene)ethylidene)-2-methylenecyclohexane-1,3-diol] | ≥ 20%
7.00 to 8.00 | C=C1[C@H](O)CC(=C/C=C2\CCC[C@]3(C)[C@@H]([C@H](C)CN4CC(CC(F)F)C4)CC[C@@H]23)C[C@H]1O [Compound A019, (1R,3R)-5-(2-((1R,3aS,7aR,E)-1-((S)-1-(3-(2,2-difluoroethyl)azetidin-1-yl)propan-2-yl)-7a-methyloctahydro-4H-inden-4-ylidene)ethylidene)-2-methylenecyclohexane-1,3-diol] | ≥ 20%
8.00 to 9.00 | C=C1[C@H](O)CC(=C/C=C2\CCC[C@]3(C)[C@@H]([C@H](C)CN4CC[C@H](CCC(F)F)C4)CC[C@@H]23)C[C@H]1O [Compound B061, (1R,3R)-5-(2-((1R,3aS,7aR,E)-1-((S)-1-((S)-3-(3,3-difluoropropyl)pyrrolidin-1-yl)propan-2-yl)-7a-methyloctahydro-4H-inden-4-ylidene)ethylidene)-2-methylenecyclohexane-1,3-diol] | ≥ 20%
6.00 to 7.00 | C[C@H](CCN1CCO[C@@H](C)C1)[C@H]1CC[C@H]2/C(=C/C=C3C[C@@H](O)C[C@H](O)C3)CCC[C@]12C [Compound D041, (1R,3R)-5-(2-((1R,3aS,7aR,E)-7a-methyl-1-((R)-4-((S)-2-methylmorpholino)butan-2-yl)octahydro-4H-inden-4-ylidene)ethylidene)cyclohexane-1,3-diol] | ≥ 20%
8.00 to 9.00 | C=C1C(O)CC(=C/C=C2\CCC[C@]3(C)[C@@H]([C@H](C)CN4CC[C@H](OC(F)(F)F)C4)CC[C@@H]23)C[C@H]1O (stereo in doubt) [Compound B067, (1R,3S)-5-(2-((1R,3aS,7aR,E)-7a-methyl-1-((S)-1-((S)-3-(trifluoromethoxy)pyrrolidin-1-yl)propan-2-yl)octahydro-4H-inden-4-ylidene)ethylidene)-2-methylenecyclohexane-1,3-diol] | ≥ 20%
 | C=C1/C(=C\C=C2/CCC[C@]3(C)[C@@H]([C@H](C)CCN4CCO[C@@H](C)C4)CC[C@@H]23)C[C@@H](O)CC1O (stereo in doubt) [Compound D048, (1R,3R,Z)-5-(2-((1R,3aS,7aR,E)-7a-methyl-1-((R)-4-((S)-2-methylmorpholino)butan-2-yl)octahydro-4H-inden-4-ylidene)ethylidene)-4-methylenecyclohexane-1,3-diol] | ≥ 20%
8.00 to 9.00 | C[C@H](CCN1CCOC2(CC2)C1)[C@H]1CC[C@H]2/C(=C/C=C3C[C@@H](O)C[C@H](O)C3)CCC[C@]12C [Compound D030, (1R,3R)-5-(2-((1R,3aS,7aR,E)-1-((R)-4-(4-oxa-7-azaspiro[2.5]octan-7-yl)butan-2-yl)-7a-methyloctahydro-4H-inden-4-ylidene)ethylidene)cyclohexane-1,3-diol] | ≥ 20%
7.00 to 8.00 | C=C1/C(=C\C=C2/CCC[C@]3(C)[C@@H]([C@H](C)CN4CCC[C@H](C(C)(F)F)C4)CC[C@@H]23)C[C@@H](O)C[C@@H]1O [Compound C052, (1R,3S,Z)-5-(2-((1R,3aS,7aR,E)-1-((S)-1-((S)-3-(1,1-difluoroethyl)piperidin-1-yl)propan-2-yl)-7a-methyloctahydro-4H-inden-4-ylidene)ethylidene)-4-methylenecyclohexane-1,3-diol] | ≥ 20%
8.00 to 9.00 | C=C1[C@H](O)CC(=C/C=C2\CCC[C@]3(C)[C@@H]([C@H](C)CN4CCO[C@H](C(F)F)C4)CC[C@@H]23)C[C@H]1O [Compound D007, (1R,3R)-5-(2-((1R,3aS,7aR,E)-1-((S)-1-((S)-2-(difluoromethyl)morpholino)propan-2-yl)-7a-methyloctahydro-4H-inden-4-ylidene)ethylidene)-2-methylenecyclohexane-1,3-diol] | ≥ 20%
 | C=C1/C(=C\C=C2/CCC[C@]3(C)[C@@H]([C@H](C)CCN4CCO[C@@H](C(F)F)C4)CC[C@@H]23)C[C@@H](O)C[C@@H]1O [Compound D037, (1R,3 S,Z)-5-(2-((1R,3aS,7aR,E)-1-((R)-4-((R)-2-(difluoromethyl)morpholino)butan-2-yl)-7a-methyloctahydro-4H-inden-4-ylidene)ethylidene)-4-methylenecyclohexane-1,3-diol] | ≥ 20%
 | C=C1[C@H](O)CC(=C/C=C2\CCC[C@]3(C)[C@@H]([C@H](C)CCN4C[C@@H](C)OC[C@@H]4C)CC[C@@H]23)C[C@H]1O [Compound D038, (1R,3R)-5-(2-((1R,3aS,7aR,E)-1-((R)-4-((2R,5S)-2,5-dimethylmorpholino)butan-2-yl)-7a-methyloctahydro-4H-inden-4-ylidene)ethylidene)-2-methylenecyclohexane-1,3-diol] | ≥ 20%
 | C=C1/C(=C\C=C2/CCC[C@]3(C)[C@@H]([C@H](C)CCN4CCO[C@H](C)C4)CC[C@@H]23)C[C@@H](O)CC1O (stereo in doubt) [Compound D047, (1R,3R,Z)-5-(2-((1R,3aS,7aR,E)-7a-methyl-1-((R)-4-((R)-2-methylmorpholino)butan-2-yl)octahydro-4H-inden-4-ylidene)ethylidene)-4-methylenecyclohexane-1,3-diol] | ≥ 20%
